# Experimental data from US20140186329A1, “POLYPHENOL ANALOGS TO TREAT ISCHEMIA” (priority 2011, published 2014).
# What was measured:
# [1] = system: embolic strokes in rabbits; test: Rabbit small clot embolic stroke model (RSCEM); format: in vivo; conditions: for therapeutic window in the RSCEM: time post-embolization
# Text: The ability of polyphenol analogs to treat, prevent and/or mitigate one or more symptoms of stroke can also be evaluated in in vivo assays. Such assays are known in the art and find use. One applicable in vivo screening assay is the rabbit clot embolic stroke model, discussed, e.g., in Lapchak, et al., Stroke (2002) 33(9):2279-84 and Lapchak, Exp Neurol. (2007) 205(2):407-13. The rabbit small clot embolic stroke model (RSCEM) and rabbit large clot embolic stroke model (RLCEM) can be used to determine the potential neuroprotective properties and safety profile of test polyphenol analogs after an embolic stroke. Rabbits are embolized by injecting small blood clots (RSCEM) or large blood clots (RLCEM) into the cerebral circulation. Behavioral analysis is conducted 24 hours later, allowing for determination of the effective stroke dose (ES50) or clot amount (milligrams) that produces severe neurological deficits in 50% of rabbits. A drug is considered neuroprotective if it increases the ES50 compared with the vehicle-treated control group.
# Behavioral analysis was conducted at 24 hours following treatment, which allowed for the construction of quantal dose-response analysis curves. […] For the superimposed graphs, normal animals are plotted on the y-axis at 0% and abnormal animals are plotted at 100%. […] Moreover, CGA increased the P50 value (the clot dose that produces abnormality in 50% of a treatment group) compared to vehicle control. For a detailed discussion of the methods used to fit the quantal data to a sigmoidal curve, see Zivin and Waud. The pharmacology of chlorogenic acid in the rabbit small clot embolic stroke model (RSCEM) has been published (Lapchak, Exp Neurol. 2007 205(2):407-13). In the manuscript, it is shown that CGA has a therapeutic window of 60 minutes in the RSCEM. FIG. 2 presents the therapeutic window data.
# [2] = cell based assays (not specified)
# primary cortical neurons = test: Trophic factor withdrawal; format: cell-based, rat; conditions: serum-containing medium, 10-10,000 nM, 2 days
# Protocol: FIG. 5 illustrates pharmacological effects of Baicalein on cultured cells. (A) Trophic factor withdrawal. Primary cortical neurons are prepared from 18-day-old rat embryos, and cultured at low cell density 1×10^6/35 mm dish, in serum containing medium with Baicalein (10-10,000 nM), and viability assayed 2 days later using a live-dead assay. (B) Excitotoxicity assay was done with E14 mouse primary cortical neuron cultures. After 11 days of culture, cells were exposed to 10 μM glutamate for 10 min, followed by the addition of varying concentrations of Baicalein (0.2-5 μM). Cell viability was determined 24 hr later with a standard MTT assay. (C) PC12 cells were glucose-deprived then were incubates in the absence or presence of Baicalein. Cell viability was determined 24 hr later using the MTT assay. (D) RCG-5 nerve cells were treated with 30 μM iodoacetic acid for 2 hr in the presence or absence of 5-25 μM Baicalein. In some experiments, Baicalein was added 2 hr after the ischemic event. Cell survival (%) was measured after 24 hr by the MTT assay. Baicalein added before (□) or 2 hr after ([…]) ischemia. […] These include trophic factor withdrawal (TFW), excitotoxicity, glucose starvation, and most importantly, in a chemical ischemia model. […] (FIG. 5A). Using a published excitotoxicity assay, Baicalein rescues about 35% of the cells (FIG. 5B).
# PC12 cells = test: Glucose starvation; format: cell-based; conditions: MTT 24 hr
# Protocol: (§1) FIG. 5 illustrates pharmacological effects of Baicalein on cultured cells. (A) Trophic factor withdrawal. Primary cortical neurons are prepared from 18-day-old rat embryos, and cultured at low cell density 1×10^6/35 mm dish, in serum containing medium with Baicalein (10-10,000 nM), and viability assayed 2 days later using a live-dead assay. (B) Excitotoxicity assay was done with E14 mouse primary cortical neuron cultures. After 11 days of culture, cells were exposed to 10 μM glutamate for 10 min, followed by the addition of varying concentrations of Baicalein (0.2-5 μM). Cell viability was determined 24 hr later with a standard MTT assay. (C) PC12 cells were glucose-deprived then were incubates in the absence or presence of Baicalein. Cell viability was determined 24 hr later using the MTT assay. (D) RCG-5 nerve cells were treated with 30 μM iodoacetic acid for 2 hr in the presence or absence of 5-25 μM Baicalein. In some experiments, Baicalein was added 2 hr after the ischemic event. Cell survival (%) was measured after 24 hr by the MTT assay. Baicalein added before (□) or 2 hr after ([…]) ischemia. […] When these cells are starved for glucose, there is approximately 70% maximal survival in the presence of NGF. Baicalein promotes over 80% survival (FIG. 5C).
# RCG-5 nerve cells = test: Chemical ischemia model (IAA) in RCG-5 nerve cells; format: cell-based; conditions: 30 μM IAA 2 hr, 5-25 μM, also added 2 hrs after insult
# Protocol: as §1
# [3] = 50 mg/kg intravenously, 5 minutes following embolization, behavior at 24 hours
# [4] = administered 1 hour following embolization
# [5] = administered 3 hours following embolization
SMILES,"P50 value (clot dose that produces abnormality in 50% of a group) [1, 3] [mg]","improvement of behavior [1, 4]","improvement of behavior [1, 5]",therapeutic window in the RSCEM [1] [min],EC50 [2] [µM],"P50 value (clot dose that produces abnormality in 50% of a group) ([1]; 100 mg/kg subcutaneously, 60 minutes following embolization) [mg]",survival of low-density cultured cortical neurons (primary cortical neurons),survival of glucose-starved cells (PC12 cells),prevention of cell death in chemical ischemia model (RCG-5 nerve cells)
"O=C(/C=C/c1ccc(O)c(O)c1)O[C@@H]1C[C@](O)(C(=O)O)C[C@@H](O)[C@H]1O [Chlorogenic Acid, 1,3,4,5-tetrahydroxy-cyclohexanecarboxylic acid 3-(3,4-dihydroxycinnamate)]",3.61 ± 0.52,effective at improving behavior,neither improve behavior,60,–,–,–,–,–
"O=c1c(O)c(-c2ccc(O)c(O)c2)oc2cc(O)ccc12 [Fisetin, 3,7,3′,4′-Tetrahydroxyflavone, reference compound]",2.53 ± 0.55,–,–,–,2 to 5,–,–,–,–
"O=c1cc(-c2ccccc2)oc2cc(O)c(O)c(O)c12 [Baicalein, 5,6,7-trihydroxyflavone, reference compound]",–,effective at improving behavior,neither improve behavior,≥ 60,–,2.15 ± 0.12,dramatically promotes the survival,over 80%,prevents cell death
